Patent EP0520722B1, “Therapeutic preparations containing quinazoline derivatives” (ZENECA LIMITED, priority 1991, dated 1992)
Structures can show the parent of a compound that is named as a salt.

Key:
[1] = system: human naso-pharyngeal cell line KB; assay: Test (b): in vitro inhibition of EGF-stimulated growth of KB cells (MTT); type: cell-based; conditions: 72 h, EGF (10 ng/ml), incubation for 3 days
Description: (b) An in vitro assay which determines the ability of a test compound to inhibit the growth of the human naso-pharyngeal cell line KB.
KB cells were seeded into wells at a density of 1 x 10 - 1.5 x 10^4 cells per well and grown for 24 hours in DMEM supplemented with 5% FCS (charcoal-stripped). Cell growth was determined after incubation for 3 days by the extent of metabolism of MTT tetrazolium dye to furnish a bluish colour. Cell growth was then determined in the presence of EGF (10 ng/ml) or in the presence of EGF (10 ng/ml) and a test compound at a range of concentrations. An IC50 value could then be calculated.

[2] = target: T1, receptor tyrosine kinase (Homo sapiens, UniProt P00533); assay: Test (a): in vitro receptor tyrosine kinase inhibition assay (EGF-stimulated peptide phosphorylation, [γ-32P]ATP); type: biochemical; conditions: enzyme partially purified from A-431 cells (human vulval carcinoma); in presence of EGF; 25°C for 10 minutes
T1 construct: The supernatant, containing solubilised receptor tyrosine kinase, was stored in liquid nitrogen; endogenous in cells; host or cells: A-431 cells (human vulval carcinoma); detergent-solubilised membrane fraction
Description: (a) An in vitro assay which determines the ability of a test compound to inhibit the enzyme receptor tyrosine kinase. Receptor tyrosine kinase was obtained in partially purified form from A-431 cells (derived from human vulval carcinoma) by procedures related to those described by Carpenter et al., J. Biol. Chem., 1979, 254, 4884, Cohen et al., J. Biol. Chem., 1982, 257, 1523 and by Braun et al., J. Biol. Chem., 1984, 259, 2051.
A-431 cells were grown to confluence using Dulbecco′s modified Eagle′s medium (DMEM) containing 5% fetal calf serum (FCS). The obtained cells were homogenised in a hypotonic borate/EDTA buffer at pH 10.1. The homogenate was centrifuged at 400 g for 10 minutes at 0-4°C. The supernatant was centrifuged at 25,000 g for 30 minutes at 0-4°C. The pelleted material was suspended in 30 mM Hepes buffer at pH 7.4 containing 5% glycerol, 4 mM benzamidine and 1% Triton X-100, stirred for 1 hour at 0-4°C, and recentrifuged at 100,000 g for 1 hour at 0-4°C. The supernatant, containing solubilised receptor tyrosine kinase, was stored in liquid nitrogen.
For test purposes 40 µl of the enzyme solution so obtained was added to a mixture of 400 µl of a mixture of 150 mM Hepes buffer at pH 7.4, 500 µM sodium orthovanadate, 0.1% Triton X-100, 10% glycerol, 200 µl water, 80 µl of 25 mM DTT and 80µl of a mixture of 12.5 mM manganese chloride, 125 mM magnesium chloride and distilled water. There was thus obtained the test enzyme solution.
Each test compound was dissolved in dimethylsulphoxide (DMSO) to give a 50 mM solution which was diluted with 40 mM Hepes buffer containing 0.1% Triton X-100, 10% glycerol and 10% DMSO to give a 500 µM solution. Equal volumes of this solution and a solution of epidermal growth factor (EGF; 20 µg/ml) were mixed.
[γ-^32P]ATP (3000 Ci/mM, 250 µCi) was diluted to a volume of 2 ml by the addition of a solution of ATP (100 µM) in distilled water. An equal volume of a 4 mg/ml solution of the peptide Arg-Arg-Leu-Ile-Glu-Asp-Ala-Glu-Tyr-Ala-Ala-Arg-Gly in a mixture of 40 mM Hepes buffer at pH 7.4, 0.1% Triton X-100 and 10% glycerol was added.
The test compound/EGF mixture solution (5 µl) was added to the test enzyme solution (10 µl) and the mixture was incubated at 0-4°C for 30 minutes. The ATP/peptide mixture (10 µl) was added and the mixture was incubated at 25°C for 10 minutes. […] Radioactivity present in the filter paper was measured using a liquid scintillation counter (Sequence A). […]
Receptor tyrosine kinase inhibition was calculated as follows:- % Inhibition =[…] [formula]
The extent of inhibition was then determined at a range of concentrations of test compound to give an IC50 value.

T1 sequence (P00533 25-1210): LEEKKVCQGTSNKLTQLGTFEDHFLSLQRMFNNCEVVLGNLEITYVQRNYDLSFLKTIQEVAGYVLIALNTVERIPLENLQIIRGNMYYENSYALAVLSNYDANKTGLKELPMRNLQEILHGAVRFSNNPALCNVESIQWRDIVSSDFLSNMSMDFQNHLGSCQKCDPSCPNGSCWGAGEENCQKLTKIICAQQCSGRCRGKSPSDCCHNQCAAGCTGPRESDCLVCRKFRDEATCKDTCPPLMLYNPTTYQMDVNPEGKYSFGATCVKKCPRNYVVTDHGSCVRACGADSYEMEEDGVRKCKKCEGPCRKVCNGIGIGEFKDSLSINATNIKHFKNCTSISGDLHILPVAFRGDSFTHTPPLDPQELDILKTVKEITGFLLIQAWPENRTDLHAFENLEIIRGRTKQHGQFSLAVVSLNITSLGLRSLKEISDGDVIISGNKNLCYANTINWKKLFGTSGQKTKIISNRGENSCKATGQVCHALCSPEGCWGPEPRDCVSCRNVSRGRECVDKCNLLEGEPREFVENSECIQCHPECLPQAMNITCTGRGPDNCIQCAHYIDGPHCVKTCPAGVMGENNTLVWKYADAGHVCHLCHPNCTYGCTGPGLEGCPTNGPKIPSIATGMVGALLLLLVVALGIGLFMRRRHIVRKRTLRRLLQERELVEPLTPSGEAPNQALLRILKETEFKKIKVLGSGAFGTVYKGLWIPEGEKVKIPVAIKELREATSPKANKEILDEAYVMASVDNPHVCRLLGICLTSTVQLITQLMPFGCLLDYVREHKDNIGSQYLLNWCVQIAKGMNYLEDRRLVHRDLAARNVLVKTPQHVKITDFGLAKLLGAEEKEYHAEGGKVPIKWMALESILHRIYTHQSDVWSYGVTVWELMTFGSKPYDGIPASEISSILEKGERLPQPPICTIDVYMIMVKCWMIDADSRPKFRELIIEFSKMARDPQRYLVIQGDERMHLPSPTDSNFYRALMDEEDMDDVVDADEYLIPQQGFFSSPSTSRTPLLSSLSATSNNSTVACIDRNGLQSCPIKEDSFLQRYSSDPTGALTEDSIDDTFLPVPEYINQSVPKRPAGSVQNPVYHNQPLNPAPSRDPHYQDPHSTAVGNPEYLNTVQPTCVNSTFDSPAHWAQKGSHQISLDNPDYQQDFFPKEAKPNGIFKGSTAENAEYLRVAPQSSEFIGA

IC50 [1] [µM] | IC50 [2] [µM] | SMILES
~5 | 0.04 | Clc1cccc(Nc2ncnc3ccccc23)c1 [4-(3'-chloroanilino)quinazoline, 4-(3′-chloroanilino)quinazoline hydrochloride]
1 | 0.02 | Clc1cccc(Nc2ncnc3cc(Cl)ccc23)c1 [7-chloro-4-(3'-chloroanilino)quinazoline]
~5 | 0.18 | Cc1cccc(Nc2ncnc3ccccc23)c1 [4-(3'-methylanilino)-quinazoline]
0.78 | 0.02 | Brc1cccc(Nc2ncnc3ccccc23)c1 [4-(3'-bromoanilino)quinazoline, 4-(3'-bromoanilino)quinazoline hydrochloride]
